This note sets out measurements from US12570659B2, “Bicyclic heteroaryl compounds useful as IRAK4 inhibitors” (BRISTOL-MYERS SQUIBB COMPANY, priority 2019, dated 2026).

For one test, the target named is JAK3 kinase (Homo sapiens (Human), UniProt P52333). Description: JAK3 Homogeneous Time Resolved Fluorescence (HTRF) Assay. To be noted: for IC50: competition binding with fluorescein-labeled ATP competitive probe; for Ratio of JAK3 IC50 to IRAK4 IC50: selectivity for IRAK4 over JAK3. Format: binding. A digest of the protocol:
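IC50 reflects displacement of a fluorescein-labeled ATP-site probe (at its Kd) from 1 nM tagged JAK3, detected via 0.2 nM Tb anti-His or anti-GST antibody. One-hour incubation; 495 and 520 nm emission ratios, background-subtracted, normalized to maximum signal; 11-point percent inhibition, 4-parameter logistic.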
On the technique in general: TR-FRET usually uses a lanthanide donor and a delayed reading to cut background.

Another test concerns the target IRAK4 (Homo sapiens (Human), UniProt Q9NWZ3). Briefly: IRAK4 Inhibition Assay. The format is biochemical. Particulars: ATP 500 μM; IRAK4 0.6 nM; 60 min room temperature. A digest of the protocol: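 Phosphorylated and unphosphorylated fluorescent substrate were resolved by microfluidic electrophoresis after termination with 35 mM EDTA. The room-temperature kinase reaction lasted 60 min after IRAK4, substrates and test compound were combined; vehicle-only defined 0% and no-enzyme 100% inhibition.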

IRAK4, sequence (Q9NWZ3 whole entry, species assumed): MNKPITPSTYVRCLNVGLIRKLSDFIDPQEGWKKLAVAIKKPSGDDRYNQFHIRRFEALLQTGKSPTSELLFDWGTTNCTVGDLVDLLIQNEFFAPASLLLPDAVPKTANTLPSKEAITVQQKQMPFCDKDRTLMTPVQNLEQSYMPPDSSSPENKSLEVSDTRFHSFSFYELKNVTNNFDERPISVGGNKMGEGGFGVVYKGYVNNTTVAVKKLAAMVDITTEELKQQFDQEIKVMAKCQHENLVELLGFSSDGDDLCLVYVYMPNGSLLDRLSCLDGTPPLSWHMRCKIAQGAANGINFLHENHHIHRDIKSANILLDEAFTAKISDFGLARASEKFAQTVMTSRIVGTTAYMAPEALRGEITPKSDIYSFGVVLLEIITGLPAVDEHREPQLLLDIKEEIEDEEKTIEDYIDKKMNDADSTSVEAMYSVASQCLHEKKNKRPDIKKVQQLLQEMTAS
JAK3 kinase, sequence (P52333 whole entry): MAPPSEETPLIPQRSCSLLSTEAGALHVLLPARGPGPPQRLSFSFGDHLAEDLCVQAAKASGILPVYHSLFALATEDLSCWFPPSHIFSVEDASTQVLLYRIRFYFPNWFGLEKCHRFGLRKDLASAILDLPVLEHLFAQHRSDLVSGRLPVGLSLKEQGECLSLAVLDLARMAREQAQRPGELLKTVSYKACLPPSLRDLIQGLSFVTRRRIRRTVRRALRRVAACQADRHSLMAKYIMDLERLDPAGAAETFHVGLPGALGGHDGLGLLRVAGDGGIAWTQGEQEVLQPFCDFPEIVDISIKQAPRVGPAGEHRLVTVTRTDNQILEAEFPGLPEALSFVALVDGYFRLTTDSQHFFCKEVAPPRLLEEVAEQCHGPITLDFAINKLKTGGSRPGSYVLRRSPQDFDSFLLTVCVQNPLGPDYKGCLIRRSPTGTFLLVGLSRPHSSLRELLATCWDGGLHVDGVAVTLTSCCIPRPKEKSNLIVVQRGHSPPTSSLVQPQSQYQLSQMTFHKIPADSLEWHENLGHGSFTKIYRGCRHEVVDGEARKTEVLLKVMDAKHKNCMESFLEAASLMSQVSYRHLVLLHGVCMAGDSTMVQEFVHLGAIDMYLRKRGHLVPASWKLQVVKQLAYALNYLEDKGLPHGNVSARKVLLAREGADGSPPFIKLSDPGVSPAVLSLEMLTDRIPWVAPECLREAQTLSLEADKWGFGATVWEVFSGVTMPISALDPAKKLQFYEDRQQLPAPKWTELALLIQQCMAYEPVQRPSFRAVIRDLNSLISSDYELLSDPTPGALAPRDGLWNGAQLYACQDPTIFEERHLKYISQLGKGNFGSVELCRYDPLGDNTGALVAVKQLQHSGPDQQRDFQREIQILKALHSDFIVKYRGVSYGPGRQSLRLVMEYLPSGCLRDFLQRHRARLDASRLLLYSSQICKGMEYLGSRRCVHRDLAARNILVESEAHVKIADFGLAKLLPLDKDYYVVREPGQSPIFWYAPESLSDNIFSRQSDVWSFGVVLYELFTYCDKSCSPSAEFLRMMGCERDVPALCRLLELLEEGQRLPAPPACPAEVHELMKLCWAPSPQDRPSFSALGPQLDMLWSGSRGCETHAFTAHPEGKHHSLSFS

Consider `CC(C)Nc1c(C(=O)NC[C@@H](F)C(C)(C)O)cnc2cc(-c3cncc(C#N)c3)nn12` [Example 124, (R)-2-(5-cyanopyridin-3-yl)-N-(2-fluoro-3-hydroxy-3-methylbutyl)-7-(isopropylamino) pyrazolo[1,5-a]pyrimidine-6-carboxamide], for which, on JAK3 kinase, the IC50 (usually the concentration that inhibits the measured activity by half) is above 50 µM and the “Ratio of JAK3 IC50 to IRAK4 IC50” value was above 139. Further, the IC50 at IRAK4 worked out at 0.36 µM.
Turning to `CC(C)Nc1c(C(=O)NC[C@@H](F)C(C)(C)O)cnc2cc(-c3cccnc3F)nn12` [Example 125, (R)—N-(2-fluoro-3-hydroxy-3-methylbutyl)-2-(2-fluoropyridin-3-yl)-7-(isopropylamino)pyrazolo[1,5-a] pyrimidine-6-carboxamide], the IC50 is above 10 µM on JAK3 kinase and 0.048 µM at IRAK4. Moreover, the “Ratio of JAK3 IC50 to IRAK4 IC50” value on JAK3 kinase was above 208.
The corresponding values for `CC(C)Nc1c(C(=O)NC[C@@H](F)C(C)(C)O)cnc2cc(-c3cnn(C)c3)nn12` [Example 126, (R)—N-(2-fluoro-3-hydroxy-3-methylbutyl)-7-(isopropylamino)-2-(1-methyl-1H-pyrazol-4-yl)pyrazolo[1,5-a]pyrimidine-6-carboxamide] are above 50 µM, 0.24 µM and above 208.
On to `CC(C)Nc1c(C(=O)NC[C@@H](F)C(C)(C)O)cnc2cc(-c3cncnc3)nn12` [Example 127, (R)—N-(2-fluoro-3-hydroxy-3-methylbutyl)-7-(isopropylamino)-2-(pyrimidin-5-yl)pyrazolo[1,5-a]pyrimidine-6-carboxamide], for which the IC50 was above 10 µM on JAK3 kinase and 0.17 µM at IRAK4. The “Ratio of JAK3 IC50 to IRAK4 IC50” value on JAK3 kinase was above 59.
Turning to `CC(C)Nc1c(C(=O)NC[C@@H](F)C(C)(C)O)cnc2cc(-c3ccccc3)nn12` [Example 128, (R)—N-(2-fluoro-3-hydroxy-3-methylbutyl)-7-(isopropylamino)-2-phenylpyrazolo[1,5-a]pyrimidine-6-carboxamide], on JAK3 kinase, the IC50 is above 10 µM and the “Ratio of JAK3 IC50 to IRAK4 IC50” value was above 175. In addition, at IRAK4, the half-maximal inhibitory concentration (IC50) is 0.057 µM.
As to `CC(C)(O)[C@H](F)CNC(=O)c1cnc2cc(-c3cccnc3)nn2c1NCC(F)F` [Example 129, (R)-7-((2,2-difluoroethyl)amino)-N-(2-fluoro-3-hydroxy-3-methylbutyl)-2-(pyridin-3-yl) pyrazolo[1,5-a]pyrimidine-6-carboxamide], on JAK3 kinase, the IC50 is above 10 µM and the “Ratio of JAK3 IC50 to IRAK4 IC50” value is above 33. For the same compound, the IC50 at IRAK4 came to 0.3 µM.
The corresponding values for `CC(C)Nc1c(C(=O)NC[C@@H](F)C(C)(C)O)cnc2cc(-c3cncc(F)c3)nn12` [Example 130, (R)—N-(2-fluoro-3-hydroxy-3-methylbutyl)-2-(5-fluoropyridin-3-yl)-7-(isopropylamino) pyrazolo[1,5-a]pyrimidine-6-carboxamide] are above 10 µM, above 91 and 0.11 µM.
As for `Cc1ccc(-c2cc3ncc(C(=O)NC[C@@H](F)C(C)(C)O)c(NC(C)C)n3n2)cn1` [Example 131, (R)—N-(2-fluoro-3-hydroxy-3-methylbutyl)-7-(isopropylamino)-2-(6-methylpyridin-3-yl)pyrazolo[1,5-a]pyrimidine-6-carboxamide], the IC50 was above 50 µM at JAK3 kinase and 0.02 µM at IRAK4. Moreover, the “Ratio of JAK3 IC50 to IRAK4 IC50” value at JAK3 kinase is given as above 2500.
The corresponding values for `Cc1ncccc1-c1cc2ncc(C(=O)NC[C@@H](F)C(C)(C)O)c(NC(C)C)n2n1` [Example 132, (R)—N-(2-fluoro-3-hydroxy-3-methylbutyl)-7-(isopropylamino)-2-(2-methylpyridin-3-yl)pyrazolo[1,5-a]pyrimidine-6-carboxamide] are above 50 µM, 0.23 µM and above 217.
The corresponding values for `CC(C)Nc1c(C(=O)NC[C@@H](F)C(C)(C)O)cnc2cc(-c3cccc(C#N)c3)nn12` [Example 133, (R)-2-(3-cyanophenyl)-N-(2-fluoro-3-hydroxy-3-methylbutyl)-7-(isopropylamino)pyrazolo[1,5-a] pyrimidine-6-carboxamide] are above 2 µM, 0.13 µM and above 15.
In the same order, the values of `CC(C)Nc1c(C(=O)NC[C@@H](F)C(C)(C)O)cnc2cc(-c3ncco3)nn12` [Example 134, (R)—N-(2-fluoro-3-hydroxy-3-methylbutyl)-7-(isopropylamino)-2-(oxazol-2-yl)pyrazolo[1,5-a]pyrimidine-6-carboxamide] are above 50 µM, 0.22 µM and above 227.
As to `CC(C)Nc1c(C(=O)NC[C@@H](F)C(C)(C)O)cnc2cc(-c3ccccc3F)nn12` [Example 135, (R)—N-(2-fluoro-3-hydroxy-3-methylbutyl)-2-(2-fluorophenyl)-7-(isopropylamino)pyrazolo[1,5-a]pyrimidine-6-carboxamide], on JAK3 kinase, the 50% inhibitory concentration (IC50) is above 10 µM and the “Ratio of JAK3 IC50 to IRAK4 IC50” value is above 455. Besides, the IC50 on IRAK4 was determined as 0.022 µM.
In the same order, the values of `Cc1ccccc1-c1cc2ncc(C(=O)NC[C@@H](F)C(C)(C)O)c(NC(C)C)n2n1` [Example 136, (R)—N-(2-fluoro-3-hydroxy-3-methylbutyl)-7-(isopropylamino)-2-(o-tolyl)pyrazolo[1,5-a]pyrimidine-6-carboxamide] are above 10 µM, above 20 and 0.51 µM.
In the same order, the values of `CC(C)Nc1c(C(=O)NC[C@@H](F)C(C)(C)O)cnc2cc(-c3ccncc3F)nn12` [Example 137, (R)—N-(2-fluoro-3-hydroxy-3-methylbutyl)-2-(3-fluoropyridin-4-yl)-7-(isopropylamino) pyrazolo[1,5-a]pyrimidine-6-carboxamide] are above 10 µM, above 1190 and 0.0084 µM.
Consider `CC(C)(O)[C@H](F)CNC(=O)c1cnc2cc(-c3cccnc3)nn2c1N[C@H]1CCN(c2cnc(F)nc2)C1` [Example 138, N—((R)-2-fluoro-3-hydroxy-3-methylbutyl)-7-(((S)-1-(2-fluoropyrimidin-5-yl)pyrrolidin-3-yl)amino)-2-(pyridin-3-yl) pyrazolo[1,5-a]pyrimidine-6-carboxamide], for which the IC50 was above 10 µM at JAK3 kinase and 0.64 µM at IRAK4. Besides, the “Ratio of JAK3 IC50 to IRAK4 IC50” value at JAK3 kinase is above 16.
The corresponding values for `CC(C)(O)[C@H](F)CNC(=O)c1cnc2cc(-c3cccnc3)nn2c1N[C@H]1CCC[C@H]1O` [Example 139, N—((R)-2-fluoro-3-hydroxy-3-methylbutyl)-7-(((1S,2R)-2-hydroxycyclopentyl)amino)-2-(pyridin-3-yl)pyrazolo[1,5-a] pyrimidine-6-carboxamide] are above 50 µM, 0.25 µM and above 200.
The corresponding values for `CC(C)Nc1c(C(=O)NC[C@@H](F)C(C)(C)O)cnc2cc(-c3cccc(F)c3)nn12` [Example 140, (R)—N-(2-fluoro-3-hydroxy-3-methylbutyl)-2-(3-fluorophenyl)-7-(isopropylamino)pyrazolo[1,5-a]pyrimidine-6-carboxamide] are above 50 µM, 0.082 µM and above 610.
In the case of `CC(C)Nc1c(C(=O)NC[C@@H](F)C(C)(C)O)cnc2cc(-c3ccc(C#N)cc3)nn12` [Example 141, (R)-2-(4-cyanophenyl)-N-(2-fluoro-3-hydroxy-3-methylbutyl)-7-(isopropylamino)pyrazolo[1,5-a]pyrimidine-6-carboxamide], on JAK3 kinase, the IC50 was above 50 µM and the “Ratio of JAK3 IC50 to IRAK4 IC50” value is above 4545. The IC50 on IRAK4 was 0.011 µM.
`COc1ccc(-c2cc3ncc(C(=O)NC[C@@H](F)C(C)(C)O)c(NC(C)C)n3n2)cn1` [Example 142, (R)—N-(2-fluoro-3-hydroxy-3-methylbutyl)-7-(isopropylamino)-2-(6-methoxypyridin-3-yl)pyrazolo[1,5-a]pyrimidine-6-carboxamide]: at JAK3 kinase, the IC50 was above 10 µM and the “Ratio of JAK3 IC50 to IRAK4 IC50” value is above 71. For the same compound, on IRAK4, the IC50 was determined as 0.14 µM.
For the compound `COc1ncccc1-c1cc2ncc(C(=O)NC[C@@H](F)C(C)(C)O)c(NC(C)C)n2n1` [Example 143, (R)—N-(2-fluoro-3-hydroxy-3-methylbutyl)-7-(isopropylamino)-2-(2-methoxypyridin-3-yl)pyrazolo[1,5-a]pyrimidine-6-carboxamide], the concentration for half-maximal inhibition (IC50) at JAK3 kinase was above 10 µM; on IRAK4, 0.63 µM. Also, the “Ratio of JAK3 IC50 to IRAK4 IC50” value on JAK3 kinase is recorded as above 16.
In the same order, the values of `COc1cccc(-c2cc3ncc(C(=O)NC[C@@H](F)C(C)(C)O)c(NC(C)C)n3n2)n1` [Example 144, (R)—N-(2-fluoro-3-hydroxy-3-methylbutyl)-7-(isopropylamino)-2-(6-methoxypyridin-2-yl)pyrazolo[1,5-a] pyrimidine-6-carboxamide] are above 50 µM, 1.4 µM and above 36.
The corresponding values for `CC(C)Nc1c(C(=O)NC[C@@H](F)C(C)(C)O)cnc2cc(-c3cccc(=O)[nH]3)nn12` [Example 145, (R)—N-(2-fluoro-3-hydroxy-3-methylbutyl)-7-(isopropylamino)-2-(6-oxo-1,6-dihydropyridin-2-yl) pyrazolo[1,5-a]pyrimidine-6-carboxamide] are above 50 µM, 0.3 µM and above 167.
